{"source": "patent US20240238426A1", "about": "“PROTEIN ACYLATION MODULATION BY HETEROBIFUNCTIONAL MOLECULES” (THE SCRIPPS RESEARCH INSTITUTE, priority 2021, published 2024)", "key": {"[1]": {"tested_on": "p300/CBP substrates, including c-Myc and STAT3", "experiment": "Immunoblot of acetylation of other p300/CBP substrates in HeLa cells", "format": "cell-based, Human", "details": "increasing concentration", "experimental": "(§1) Immunoblotting: Cells were harvested in cold DPBS by scraping and washed with cold DPBS twice. Cell pellets were resuspended in DPBS supplemented with 5 mM sodium butyrate, 20 mM Nicotinamide, and 1X Halt Protease Inhibitor Cocktail and lysed by sonication (15 ms on, 40 ms off, 15% amplitude, 1s total on x 3). Protein concentration was determined using DC Protein Assay (Bio-Rad) and absorbance read using a CLARIOstar plate reader following manufacturer's instructions. Samples with equal protein content were boiled in 4X SDS gel loading buffer for 10 min. Proteins were separated by 10%, 12.5%, or 15% SDS-polyacrylamide gel electrophoresis and transferred to PVDF membranes using Trans-Blot Turbo RTA Mini […] LF PVDF Transfer Kit (Bio-Rad). Membranes were incubated for 1 h at room temperature with blocking buffer, followed by incubating overnight at 4° C. with primary antibodies. After washing in TBST, the secondary antibodies were incubated with the membranes at room temperature for 1 h. The membranes were washed with TBST for three times and visualized on a Bio-Rad ChemiDoc MP Imaging System with Clarity Max Western ECL substrate (Bio-Rad) or SuperSignal West Femto Chemiluminescent substrate proprietary luminol and peroxide solution kit (Thermo Scientific Pierce)."}, "[2]": {"tested_on": "H3.3-FKBP12^F36V HeLa cells", "experiment": "Quantitative acetylproteomics of H3.3-FKBP12^F36V HeLa cells", "format": "cell-based, Human", "experimental": "Sample preparation: Frozen cell pellets were thawed on ice and lysed in a buffer containing 50 mM Tris-HCl (pH 7.5), 150 mM NaCl, 1 mM EDTA, 1% NP-40, 0.1% sodium deoxycholate, 5 mM sodium butyrate, 10 mM nicotinamide and 1X Pierce™ protease inhibitor cocktail. Cells were sonicated to ensure complete lysis, mixed with 5 M NaCl at a ratio of 1:10 with sample volume and incubated on ice for 15 min to release chromatin-bound proteins. Cell lysates were then sonicated again to shear genomic DNA. Cellular debris was cleared by centrifugation at 16,000 g for 20 min at 4° C., protein concentration was determined using a Pierce™ BCA assay and ˜10 mg of protein was aliquoted for acetyl-proteomic analysis. Proteins were denatured with 8 M urea in 50 mM HEPES, reduced with 5 mM dithiothreitol for 30 min at 56° C., then alkylated with 5 mM iodoacetamide for 20 min in the dark at RT. Following alkylation, proteins were precipitated using chloroform-methanol as previously described, and protein pellets were dried at 56° C. for 15 min. Proteins pellets were resuspended in 1 M urea in 50 mM HEPES and digested in a two-step process with LysC and trypsin as previously described. Digested peptides were desalted using Phenomenex Strata-X polymeric reverse phase extraction cartridges using the following protocol. Cartridges were conditioned with 1 mL 100% acetonitrile, 1 mL 80% acetonitrile/0.5% AA, and 1 mL 0.1% TFA. Peptides were then loaded on to the cartridge at a reduced flow rate and desalted with 5 mL 0.1% TFA followed by 1 mL 0.5% AA. Desalted peptides were eluted using 1 mL 40% acetonitrile/0.5% AA followed by 1 mL 80% acetonitrile/0.5% AA and lyophilized. Digested peptides were quantified using the Pierce™ Quantitative Colorimetric Peptide Assay and […] was aliquoted from each for total protein analysis while the remaining peptide was lyophilized and retained for acetyl-peptide enrichment.\nAcetyl-peptide Enrichment: Acetyl-peptides were enriched using the PTMScan® Acetyl-Lysine Motif [Ac-K] Kit according to manufacturer instructions. […]"}, "H3.3-FKBP12^F36V": {"molecular_target": "T1, H3.3-FKBP12^F36V (Homo sapiens, UniProt P62942+Q09472, F37V)", "T1 construct": "expressed in transfected cells", "T1 sequence (P62942 2-108 F37V limits assumed)": "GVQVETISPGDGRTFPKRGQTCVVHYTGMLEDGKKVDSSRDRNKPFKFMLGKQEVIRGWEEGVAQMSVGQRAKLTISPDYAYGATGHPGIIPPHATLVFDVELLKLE", "T1 sequence (Q09472 2-2414 limits assumed, stated change not applied)": "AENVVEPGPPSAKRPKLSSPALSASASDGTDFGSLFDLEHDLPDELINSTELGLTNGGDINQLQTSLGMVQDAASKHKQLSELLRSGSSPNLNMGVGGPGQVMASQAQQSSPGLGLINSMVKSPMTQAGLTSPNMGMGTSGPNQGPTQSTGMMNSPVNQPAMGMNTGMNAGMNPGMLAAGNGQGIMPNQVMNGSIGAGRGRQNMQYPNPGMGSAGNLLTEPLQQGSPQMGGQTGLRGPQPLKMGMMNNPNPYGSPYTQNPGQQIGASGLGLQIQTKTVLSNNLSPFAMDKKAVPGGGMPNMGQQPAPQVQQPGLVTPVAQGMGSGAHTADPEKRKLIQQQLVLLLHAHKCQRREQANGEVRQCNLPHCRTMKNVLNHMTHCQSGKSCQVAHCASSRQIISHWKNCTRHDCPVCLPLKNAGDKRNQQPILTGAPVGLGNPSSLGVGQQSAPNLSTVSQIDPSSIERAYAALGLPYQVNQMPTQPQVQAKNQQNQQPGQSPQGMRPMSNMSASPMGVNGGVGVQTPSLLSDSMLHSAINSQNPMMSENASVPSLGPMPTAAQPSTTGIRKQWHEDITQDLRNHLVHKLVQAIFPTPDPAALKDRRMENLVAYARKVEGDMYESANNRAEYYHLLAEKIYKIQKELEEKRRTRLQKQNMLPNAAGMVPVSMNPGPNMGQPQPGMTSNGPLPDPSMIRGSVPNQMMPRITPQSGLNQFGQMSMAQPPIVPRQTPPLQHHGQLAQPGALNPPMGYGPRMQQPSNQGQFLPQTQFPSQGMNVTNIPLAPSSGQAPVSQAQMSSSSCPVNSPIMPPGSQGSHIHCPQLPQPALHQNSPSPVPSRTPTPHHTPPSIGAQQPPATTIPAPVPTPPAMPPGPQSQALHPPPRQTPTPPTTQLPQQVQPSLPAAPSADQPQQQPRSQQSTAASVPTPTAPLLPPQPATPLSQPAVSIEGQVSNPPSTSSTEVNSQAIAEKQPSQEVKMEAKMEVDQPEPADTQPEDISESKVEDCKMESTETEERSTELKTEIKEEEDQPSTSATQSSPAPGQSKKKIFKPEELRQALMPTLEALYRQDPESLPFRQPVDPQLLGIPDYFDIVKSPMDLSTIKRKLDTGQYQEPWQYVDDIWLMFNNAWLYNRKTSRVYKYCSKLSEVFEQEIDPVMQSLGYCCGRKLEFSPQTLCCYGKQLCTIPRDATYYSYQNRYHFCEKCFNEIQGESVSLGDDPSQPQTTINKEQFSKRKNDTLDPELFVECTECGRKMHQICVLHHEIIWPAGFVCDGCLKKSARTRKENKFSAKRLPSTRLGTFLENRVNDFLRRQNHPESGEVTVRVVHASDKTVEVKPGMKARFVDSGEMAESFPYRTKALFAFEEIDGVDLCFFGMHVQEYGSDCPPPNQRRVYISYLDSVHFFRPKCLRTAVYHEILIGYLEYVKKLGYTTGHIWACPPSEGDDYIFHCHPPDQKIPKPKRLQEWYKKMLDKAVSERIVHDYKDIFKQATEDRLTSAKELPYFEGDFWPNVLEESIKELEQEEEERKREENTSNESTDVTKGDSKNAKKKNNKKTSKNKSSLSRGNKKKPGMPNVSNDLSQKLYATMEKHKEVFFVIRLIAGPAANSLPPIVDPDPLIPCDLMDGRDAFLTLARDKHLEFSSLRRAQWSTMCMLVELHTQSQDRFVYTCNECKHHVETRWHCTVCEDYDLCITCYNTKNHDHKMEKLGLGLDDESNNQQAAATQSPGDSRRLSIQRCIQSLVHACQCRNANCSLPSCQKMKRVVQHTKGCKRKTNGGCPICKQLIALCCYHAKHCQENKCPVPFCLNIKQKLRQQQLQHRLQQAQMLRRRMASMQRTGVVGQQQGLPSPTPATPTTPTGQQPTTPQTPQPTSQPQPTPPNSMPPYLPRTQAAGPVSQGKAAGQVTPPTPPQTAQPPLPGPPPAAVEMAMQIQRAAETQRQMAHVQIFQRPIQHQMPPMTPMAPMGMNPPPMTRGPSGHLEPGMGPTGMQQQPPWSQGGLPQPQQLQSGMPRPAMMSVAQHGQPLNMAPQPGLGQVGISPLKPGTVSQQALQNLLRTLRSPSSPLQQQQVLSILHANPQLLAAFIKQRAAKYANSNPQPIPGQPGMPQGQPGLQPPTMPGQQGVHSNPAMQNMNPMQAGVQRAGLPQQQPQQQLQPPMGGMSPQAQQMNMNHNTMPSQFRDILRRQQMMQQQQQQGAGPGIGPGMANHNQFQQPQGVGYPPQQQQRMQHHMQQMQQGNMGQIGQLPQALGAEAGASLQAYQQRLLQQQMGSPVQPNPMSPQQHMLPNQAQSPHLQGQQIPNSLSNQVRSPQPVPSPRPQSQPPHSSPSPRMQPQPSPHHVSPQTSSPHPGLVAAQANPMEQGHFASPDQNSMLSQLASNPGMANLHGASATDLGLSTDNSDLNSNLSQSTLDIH", "experiment": "Immunoblot analysis of H3.3-FKBP12^F36V acetylation in HeLa cells", "format": "cell-based", "experimental": "(§2) Lentivirus Production and Transduction: Lentiviral production was performed using HEK293T cells, which were co-transfected with pMD2.G (Addgene, #12259), psPAX2 (Addgene, #12260), and AceTAG lentiviral plasmids using PEI (Polysciences Inc). Viral particles were collected 72 h after transfection and filtered through a […] membrane. A range of dilutions of the lentivirus in DMEM complete and 10 μg/mL polybrene were added to HeLa, H1299, or HeLa RelA KO cell lines. Transduced cells were selected with 1 μg/mL or 2 μg/mL puromycin.\nas §1"}, "[3]": {"tested_on": "T2, FKBP12^F36V-RelA (Homo sapiens, F37V)", "T2 construct": "expressed in transfected cells", "T2 sequence (P62942 2-108 F37V limits assumed)": "as the sequence (P62942 2-108 F37V limits assumed) above", "T2 sequence (Q09472 2-2414 limits assumed, stated change not applied, further chain)": "as the sequence (Q09472 2-2414 limits assumed, stated change not applied) above", "experiment": "Immunoblot analysis of FKBP12^F36V-RelA acetylation in RelA-/- HeLa cells", "format": "cell-based", "experimental": "as §2, §1"}}, "data": [{"smiles": "CC[C@H](C(=O)N1CCCC[C@H]1C(=O)O[C@H](CCc1ccc(OC)c(OC)c1)c1cccc(OCC(=O)NCCOCCOCCC(=O)NCCOc2ccc(CCc3nc4cc(-c5c(C)noc5C)ccc4n3CCN3CCOCC3)cc2)c1)c1cc(OC)c(OC)c(OC)c1", "note": "[AceTAG-1, (R)-3-(3,4-dimethoxyphenyl)-1-(3-((15-(4-(2-(5-(3,5-dimethylisoxazol-4-yl)-1-(2-morpholinoethyl)-1H-benzo[d]imidazol-2-yl)ethyl)phenoxy)-2,12-dioxo-6,9-dioxa-3,13-diazapentadecyl)oxy)phenyl)propyl (S)-1-((S)-2-(3,4,5-trimethoxyphenyl)butanoyl)piperidine-2-carboxylate]", "values": [{"measurement": "acetylation of c-Myc and STAT3", "setting": "[1]; FIG. 5B", "value": "no observable acetylation changes"}, {"measurement": "broader acetylation perturbation (acetylated lysine immunoblot)", "setting": "[1]; FIG. 5C", "value": "no observable acetylation changes"}, {"measurement": "changes in acetylation of detected proteins relative to DMSO", "setting": "[2]; 600 nM AceTAG, FIG. 5D", "value": "no substantial changes in acetylation of any detected protein"}, {"measurement": "endogenous histone lysine acetylation, including H3.3", "setting": "[2]; AceTAG treatment, FIG. 9C", "value": "no substantial changes"}, {"measurement": "treatment time after which H3.3-FKBP12^F36V acetylation significantly increased", "setting": "H3.3-FKBP12^F36V; 625 nM AceTAG-1, FIG. 4E", "value": 5, "unit": "min"}, {"measurement": "acetylation level at high concentration (hook effect)", "setting": "H3.3-FKBP12^F36V; 50 μM AceTAG-1", "value": "loss of acetylation level"}, {"measurement": "K18 acetylation, comparison of analogs", "setting": "H3.3-FKBP12^F36V; FIG. 9B", "value": "modestly higher levels of acetylation relative to the other analogs"}, {"measurement": "acetylation of H3.3", "setting": "H3.3-FKBP12^F36V; HeLa cells, FIG. 8", "value": "significant acetylation of H3.3"}, {"measurement": "H3.3 acetylation at lysine 18, 23, and 27", "setting": "H3.3-FKBP12^F36V; increasing concentrations, 2 hr, FIG. 4B", "value": "dose-dependent increase"}, {"measurement": "H3.3 acetylation at lysine 9, 14, or 79", "setting": "H3.3-FKBP12^F36V; increasing concentrations, 2 hr, FIG. 4C", "value": "not lysine 9, 14, or 79"}, {"measurement": "time for H3.3 K18 acetylation to reach near basal levels after compound removal", "setting": "H3.3-FKBP12^F36V; washout, FIG. 4F", "value": "≤ 2", "unit": "h"}, {"measurement": "RelA acetylation at higher AceTAG-1 concentrations", "setting": "[3]; FIG. 6A", "value": "apparent acetylation autoinhibition"}, {"measurement": "RelA acetylation at neighboring K314/315", "setting": "[3]; FIG. 9D", "value": "minimal effects"}, {"measurement": "RelA acetylation at K310", "setting": "[3]; indicated doses, 2 hr, FIG. 6A", "value": "dose-dependent acetylation"}]}]}
